Experimental data taken from ChEMBL document CHEMBL1201862, “PubChem BioAssay data set” (2004).
Activity calls are given as the source filed them.

Key:
[1] = biological target: Cytochrome P450 3A4 (Homo sapiens, UniProt P08684); details: Potency;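 further: confirmatory qHTS run detecting inhibitors and substrates of CYP3A4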
[2] = tested on: H9c2; assay: cells; type: functional, cell-based; details: Rattus norvegicus, H9c2, Myocardium;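 further: confirmatory concentration-response retest of ultra-high-throughput screening hits for modulation of myocardial damage; cell death induced by hydrogen peroxide oxidative stress; compound pretreatment for 60 min then peroxide exposure for 2 h; potency is for protecting the cells against peroxide damage rather than for killing them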
[3] = biological target: T1, Replicative DNA helicase DnaB (Mycobacterium tuberculosis, UniProt P9WMR3); assay: DnaB intein splicing inhibitors, dose response, biochemical, cell-free fluorescence (AID 449749); type: functional
T1 sequence (P9WMR3 whole entry): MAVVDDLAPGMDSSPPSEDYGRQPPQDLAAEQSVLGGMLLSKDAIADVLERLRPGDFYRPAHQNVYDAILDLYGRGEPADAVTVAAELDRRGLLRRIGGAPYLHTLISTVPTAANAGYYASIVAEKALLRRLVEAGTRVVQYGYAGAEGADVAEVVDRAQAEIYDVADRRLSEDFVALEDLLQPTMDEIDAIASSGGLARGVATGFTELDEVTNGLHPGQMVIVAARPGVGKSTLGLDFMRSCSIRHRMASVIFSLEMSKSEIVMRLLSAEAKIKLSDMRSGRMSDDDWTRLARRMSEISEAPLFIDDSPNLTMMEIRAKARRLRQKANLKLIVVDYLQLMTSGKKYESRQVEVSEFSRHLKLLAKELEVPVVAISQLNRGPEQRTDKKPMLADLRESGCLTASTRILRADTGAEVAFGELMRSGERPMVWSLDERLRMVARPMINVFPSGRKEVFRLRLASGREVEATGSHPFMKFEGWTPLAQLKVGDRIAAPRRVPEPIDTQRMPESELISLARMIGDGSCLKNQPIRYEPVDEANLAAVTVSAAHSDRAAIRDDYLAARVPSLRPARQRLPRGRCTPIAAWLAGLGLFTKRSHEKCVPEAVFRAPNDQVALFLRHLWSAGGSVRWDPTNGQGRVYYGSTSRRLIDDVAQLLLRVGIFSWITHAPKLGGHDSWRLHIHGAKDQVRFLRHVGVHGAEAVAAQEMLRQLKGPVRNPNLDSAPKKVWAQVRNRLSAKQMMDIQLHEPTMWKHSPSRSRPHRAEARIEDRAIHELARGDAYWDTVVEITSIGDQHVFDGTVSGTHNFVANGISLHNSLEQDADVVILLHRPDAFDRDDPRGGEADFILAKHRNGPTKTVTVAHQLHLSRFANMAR

[4] = biological target: T2, Mannose-6-phosphate isomerase (Homo sapiens, UniProt P34949); assay: MPI inhibition at elevated mannose 6-phosphate – biochemical, fluorescence intensity, high mannose 6-phosphate, primary screen (AID 1220)
T2 sequence (P34949 whole entry): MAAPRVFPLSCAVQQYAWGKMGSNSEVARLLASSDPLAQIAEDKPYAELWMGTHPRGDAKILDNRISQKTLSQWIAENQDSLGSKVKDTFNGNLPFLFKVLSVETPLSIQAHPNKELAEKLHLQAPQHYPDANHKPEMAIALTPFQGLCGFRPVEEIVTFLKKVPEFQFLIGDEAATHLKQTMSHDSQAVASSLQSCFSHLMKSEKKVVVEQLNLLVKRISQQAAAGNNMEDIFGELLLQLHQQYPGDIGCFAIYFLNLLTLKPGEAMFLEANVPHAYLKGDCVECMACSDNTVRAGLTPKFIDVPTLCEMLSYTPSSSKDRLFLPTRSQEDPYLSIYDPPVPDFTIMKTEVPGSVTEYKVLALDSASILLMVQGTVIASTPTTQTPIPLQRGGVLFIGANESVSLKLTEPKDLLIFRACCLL

[5] = biological target: T3, Protein RecA (Mycobacterium tuberculosis, UniProt P9WHJ3); assay: Fluorescence Cell-Free Homogeneous Dose Retest to Identify Inhibitors of RecA-Intein Splicing Activity. [Related pubchem assays (depositor defined):AID2097, AID2223, AID489010, AID492950]; type: functional
T3 sequence (P9WHJ3 whole entry): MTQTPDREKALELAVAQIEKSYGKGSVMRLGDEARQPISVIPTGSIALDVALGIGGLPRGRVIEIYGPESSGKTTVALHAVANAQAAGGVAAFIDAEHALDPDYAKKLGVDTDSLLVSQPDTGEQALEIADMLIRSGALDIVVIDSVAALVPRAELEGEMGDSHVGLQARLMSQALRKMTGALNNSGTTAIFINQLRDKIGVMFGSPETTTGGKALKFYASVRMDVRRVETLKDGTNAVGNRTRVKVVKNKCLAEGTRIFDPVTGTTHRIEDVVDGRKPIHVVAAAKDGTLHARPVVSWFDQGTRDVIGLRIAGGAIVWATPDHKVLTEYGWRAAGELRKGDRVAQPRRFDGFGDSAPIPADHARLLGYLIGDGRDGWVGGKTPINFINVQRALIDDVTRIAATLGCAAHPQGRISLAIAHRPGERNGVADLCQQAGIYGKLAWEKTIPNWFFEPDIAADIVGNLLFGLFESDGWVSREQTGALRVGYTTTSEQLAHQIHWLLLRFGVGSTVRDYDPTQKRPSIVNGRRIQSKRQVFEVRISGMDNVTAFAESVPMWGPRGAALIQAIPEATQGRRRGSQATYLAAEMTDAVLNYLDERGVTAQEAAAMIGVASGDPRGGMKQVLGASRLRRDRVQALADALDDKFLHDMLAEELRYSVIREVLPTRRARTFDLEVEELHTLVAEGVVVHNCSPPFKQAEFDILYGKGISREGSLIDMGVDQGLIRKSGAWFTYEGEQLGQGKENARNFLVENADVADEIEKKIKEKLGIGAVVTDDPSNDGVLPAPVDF

[6] = cells; type: functional, cell-based
[7] = cells; type: functional, cell-based; remark: listed apart in the source
[8] = biological target: T4, Leucine aminopeptidase (Plasmodium falciparum 3D7, UniProt Q8IL11); assay: P. falciparum M17LAP inhibitors, primary screen, biochemical, fluorogenic H-Leu-NHMec substrate, 1536-well (AID 1619); type: functional
T4 sequence (Q8IL11 whole entry): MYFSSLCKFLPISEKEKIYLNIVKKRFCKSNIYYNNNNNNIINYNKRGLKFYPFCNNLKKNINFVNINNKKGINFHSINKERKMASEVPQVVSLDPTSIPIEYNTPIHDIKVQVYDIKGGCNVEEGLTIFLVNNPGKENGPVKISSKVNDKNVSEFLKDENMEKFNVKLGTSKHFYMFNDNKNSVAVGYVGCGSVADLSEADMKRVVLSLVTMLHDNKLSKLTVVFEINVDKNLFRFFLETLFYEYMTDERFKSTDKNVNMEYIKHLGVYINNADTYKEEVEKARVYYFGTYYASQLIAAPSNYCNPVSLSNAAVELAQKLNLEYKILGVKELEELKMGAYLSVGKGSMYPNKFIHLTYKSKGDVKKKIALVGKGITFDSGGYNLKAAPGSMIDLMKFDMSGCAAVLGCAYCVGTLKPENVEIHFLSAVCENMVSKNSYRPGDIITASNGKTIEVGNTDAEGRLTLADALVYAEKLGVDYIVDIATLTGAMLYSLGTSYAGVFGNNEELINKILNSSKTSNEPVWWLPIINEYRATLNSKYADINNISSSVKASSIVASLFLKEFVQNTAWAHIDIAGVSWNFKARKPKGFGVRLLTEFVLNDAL

[9] = cells; type: functional, cell-based; remark: listed apart in the source
[10] = cells; type: functional, cell-based; remark: listed apart in the source
[11] = biological target: T5, Ubiquitin-conjugating enzyme E2 N (Homo sapiens, UniProt P61088); type: functional;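 further: Dose-response confirmation in a TR-FRET assay detecting UBC13-driven polyubiquitin chain formation, inhibition measured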
T5 sequence (P61088 whole entry): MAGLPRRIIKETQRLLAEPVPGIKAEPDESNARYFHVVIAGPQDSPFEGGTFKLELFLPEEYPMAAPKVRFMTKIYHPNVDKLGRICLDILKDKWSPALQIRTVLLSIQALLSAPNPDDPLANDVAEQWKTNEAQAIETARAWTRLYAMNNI

[12] = biological target: T6, Trace amine-associated receptor 1 (Homo sapiens, UniProt Q96RJ0); assay: Fluorescence-based cell-based high throughput dose response assay to identify agonists of the human trace amine associated receptor 1 (TAAR1).; type: functional
T6 sequence (Q96RJ0 whole entry): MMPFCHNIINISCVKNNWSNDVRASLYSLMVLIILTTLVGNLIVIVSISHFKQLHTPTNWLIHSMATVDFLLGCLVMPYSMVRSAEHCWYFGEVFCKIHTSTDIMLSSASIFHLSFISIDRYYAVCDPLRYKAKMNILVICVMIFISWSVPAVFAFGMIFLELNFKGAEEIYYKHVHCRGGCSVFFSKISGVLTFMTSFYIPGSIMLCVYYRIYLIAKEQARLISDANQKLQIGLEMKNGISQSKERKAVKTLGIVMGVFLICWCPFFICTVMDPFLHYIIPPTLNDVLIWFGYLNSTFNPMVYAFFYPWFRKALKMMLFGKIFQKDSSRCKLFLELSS

[13] = biological target: T6, Trace amine-associated receptor 1; assay: Counterscreen for agonists of the human trace amine associated receptor 1 (hTAAR1): Fluorescence-based cell-based high throughput dose response assay to identify hTAAR1 agonist that also desensitize TAAR1 receptor response.; type: functional
[14] = biological target: Genome polyprotein (dengue virus type 2, UniProt P29990); assay: flavivirus cap methylation enzyme inhibition – biochemical, confirmation dose response, primary screen (AID 588689); type: functional
Sequence of Genome polyprotein (P29990 2492-3391 limits assumed): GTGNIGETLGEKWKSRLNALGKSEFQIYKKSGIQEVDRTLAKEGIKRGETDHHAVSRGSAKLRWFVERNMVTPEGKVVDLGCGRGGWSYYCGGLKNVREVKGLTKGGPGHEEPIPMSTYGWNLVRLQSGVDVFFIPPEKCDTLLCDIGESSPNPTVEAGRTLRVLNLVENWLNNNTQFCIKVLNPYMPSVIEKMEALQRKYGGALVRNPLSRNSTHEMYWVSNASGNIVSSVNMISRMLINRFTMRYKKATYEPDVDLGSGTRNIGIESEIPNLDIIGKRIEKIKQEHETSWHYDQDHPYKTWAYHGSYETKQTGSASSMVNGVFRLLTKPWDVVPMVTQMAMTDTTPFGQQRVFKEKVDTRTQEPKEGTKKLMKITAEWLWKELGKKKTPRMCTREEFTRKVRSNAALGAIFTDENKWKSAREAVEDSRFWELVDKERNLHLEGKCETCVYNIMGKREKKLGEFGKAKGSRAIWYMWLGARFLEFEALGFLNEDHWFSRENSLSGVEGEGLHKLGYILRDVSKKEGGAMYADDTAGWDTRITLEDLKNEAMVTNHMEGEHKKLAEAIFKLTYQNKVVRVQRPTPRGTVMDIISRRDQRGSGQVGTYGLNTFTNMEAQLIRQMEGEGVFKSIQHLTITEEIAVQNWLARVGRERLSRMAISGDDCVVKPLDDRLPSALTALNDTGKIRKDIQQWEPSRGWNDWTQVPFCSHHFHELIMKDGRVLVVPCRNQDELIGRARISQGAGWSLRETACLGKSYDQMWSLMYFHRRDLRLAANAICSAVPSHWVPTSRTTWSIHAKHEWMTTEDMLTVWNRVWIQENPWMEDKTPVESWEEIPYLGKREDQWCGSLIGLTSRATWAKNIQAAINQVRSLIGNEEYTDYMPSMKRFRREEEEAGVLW

[15] = tested on: INS1; assay: INS-1E survival protection against cytokine death – cell-based, luminescence, retest, dose response (AID 449756); type: functional; details: Rattus norvegicus;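 further: cell death triggered by IL-1 beta plus TNF-alpha plus IFN-gamma mixture; protective hits raise ATP signal compared with cytokine alone wells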
[16] = Trypanosoma cruzi growth suppression in host cells – NIH3T3 host cells, beta-gal luminescence, confirmation (AID 2044); type: functional, cell-based;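 further: intracellular parasites grown in NIH/3T3 mouse fibroblasts as host cells; luminescent beta-galactosidase reporter signal from transgenic T. cruzi replicating inside host cells; inhibitors lower the luminescence signal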
[17] = NIH3T3 cell viability loss – ATP luminescence, mouse fibroblasts, counter-screen, dose response (AID 2010); type: functional, cell-based;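 further: cells exposed to compound for about 90 hours before reading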
[18] = Luminescence Cell-Based Dose Confirmation HTS to Identify Inhibitors of Platelet Dense Granule Release. [Related pubchem assays: 1663 (Primary HTS), 1678 (Summary of Project)]; type: functional
[19] = tested on: H4; assay: Luminescence Cell-Based Dose Response HTS to Identify Activators of 5'UTR Stem-Loop Driven Prion Protein mRNA Translation in H4 Neuroglioblastoma Cells. [Related pubchem assays: 1829 (Project Summary), 1814 (Primary HTS)]; type: functional; details: Homo sapiens
[20] = Luminescence Cell-Based Dose Confirmation HTS to Identify Activators of 5'UTR Stem-Loop Driven Alpha-Synuclein mRNA Translation in H4 Neuroglioblastoma Cells. [Related pubchem assays: 1829 (Project Summary), 1814 (Primary HTS)]; type: functional
[21] = biological target: Luciferin 4-monooxygenase (Photinus pyralis, UniProt P08659); assay: inhibition of purified Photinus pyralis luciferase – biochemical, luminescence, dose response (AID 1891)
Sequence of Luciferin 4-monooxygenase (P08659 whole entry): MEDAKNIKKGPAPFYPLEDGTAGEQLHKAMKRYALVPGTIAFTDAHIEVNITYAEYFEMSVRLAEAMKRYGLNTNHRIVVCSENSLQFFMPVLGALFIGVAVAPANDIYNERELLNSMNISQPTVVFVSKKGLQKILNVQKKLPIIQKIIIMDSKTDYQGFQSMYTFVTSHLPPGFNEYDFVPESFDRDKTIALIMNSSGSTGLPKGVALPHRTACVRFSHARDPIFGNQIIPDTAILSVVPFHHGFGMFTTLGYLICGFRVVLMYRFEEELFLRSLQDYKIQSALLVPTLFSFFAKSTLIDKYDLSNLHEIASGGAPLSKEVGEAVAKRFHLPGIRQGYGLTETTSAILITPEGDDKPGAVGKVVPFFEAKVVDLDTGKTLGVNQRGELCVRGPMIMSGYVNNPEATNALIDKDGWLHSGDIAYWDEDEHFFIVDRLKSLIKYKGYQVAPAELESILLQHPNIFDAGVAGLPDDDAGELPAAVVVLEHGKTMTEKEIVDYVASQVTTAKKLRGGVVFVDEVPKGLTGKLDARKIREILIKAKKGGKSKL

[22] = Luminescence Cell-Based Dose Response HTS to Identify Activators of Luciferase Translation or Activity in H4 […] Cells. [Related pubchem assays: 1829 (Project Summary), 1814 (Primary HTS)]; type: functional

Sequence of Cytochrome P450 3A4 (P08684 whole entry): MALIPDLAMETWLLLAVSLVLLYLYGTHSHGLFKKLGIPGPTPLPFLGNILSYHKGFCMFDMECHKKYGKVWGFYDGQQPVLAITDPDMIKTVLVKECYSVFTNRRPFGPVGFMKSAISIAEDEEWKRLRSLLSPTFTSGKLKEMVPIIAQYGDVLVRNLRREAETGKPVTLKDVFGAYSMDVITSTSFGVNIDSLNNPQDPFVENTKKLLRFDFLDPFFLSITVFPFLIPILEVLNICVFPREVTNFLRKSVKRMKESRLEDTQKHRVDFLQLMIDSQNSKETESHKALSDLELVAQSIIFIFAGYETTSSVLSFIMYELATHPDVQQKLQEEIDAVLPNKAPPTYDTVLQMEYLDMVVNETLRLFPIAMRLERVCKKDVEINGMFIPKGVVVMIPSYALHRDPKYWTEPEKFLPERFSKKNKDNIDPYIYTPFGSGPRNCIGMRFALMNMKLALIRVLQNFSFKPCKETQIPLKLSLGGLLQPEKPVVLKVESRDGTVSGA

With CC(C)c1c(O)ccc2c1CCC1C(C)(C)CCC[C@@]21C (stereo not given in full) the AC50 [1] was 25.1 µM (inconclusive).

With S=C=Nc1cccc2ccccc12 [1-NAPHTHYLISOTHIOCYANATE] the AC50 [1] was 25.1 µM (inconclusive).

With CCC(=O)OCCNc1cc(SCCC(=O)OC)c2nonc2c1[N+](=O)[O-] the IC50 [2] was 14.5 µM (active), the AC50 [3] was 116 µM (active) and the IC50 [4] was > 50 µM (not active). For the same compound, the EC50 [5] was 5.12 µM (active).

For Fc1ccc(CSc2ccc(-c3ccco3)nn2)cc1, the EC50 [6] was 7.7 µM (active) and the EC50 [7] was > 350 µM (not active).

With O=C(O)c1ccc(COc2ccc3ccccc3c2/C=C2/NC(=O)N(c3ccccc3)C2=O)cc1 the IC50 [8] was 24.6 µM (active).

With CCOc1cc2c(C#N)c(N3CCNCC3)nc(N)c2c(N)n1 the IC50 [9] was > 29.9 µM (inactive), the EC50 [10] was > 29.9 µM (inactive) and the IC50 [11] was > 20 µM (inactive). For the same compound, the IC50 [4] was > 50 µM (not active), the EC50 [12] was 5.69 µM (active) and the IC50 [13] was 8.23 µM (active).

With O=C(O)CC1S/C(=N/N=C/c2ccc(-c3ccccc3[N+](=O)[O-])o2)NC1=O (stereo not given) the IC50 [14] was 89 µM (active), the AC50 [3] was 12.1 µM (active) and the IC50 [4] was > 50 µM (not active). For the same compound, the EC50 [5] was 4.31 µM (active).

In the case of O=C(/C=C/c1ccccc1)OC1CC(O)C2(O)C=CO[C@@H](OC3OC(CO)C(O)C(O)C3O)C12 (stereo not given in full), the AC50 [1] was 3.98 µM (inconclusive).

For CCOc1ccc(NC(=O)C2CCN(S(=O)(=O)c3ccc4c(c3)N(C(C)=O)CCO4)CC2)cc1, the EC50 [6] was > 350 µM (not active) and the EC50 [7] was > 350 µM (not active).

With N#Cc1cccc(NC(=O)CN2NS(=O)(=O)c3ccccc3C2=O)c1 the IC50 [8] was 14.9 µM (active).

For COc1ccc2cc3cc(C(=O)N4CCN(c5ccccn5)CC4)oc3nc2c1, the EC50 [6] was > 350 µM (not active) and the EC50 [7] was > 350 µM (not active).

In the case of O=C1OCc2cc(NC(=O)C34CC5CC(CC(C5)C3)C4)ccc21, the EC50 [6] was > 350 µM (not active) and the EC50 [7] was > 350 µM (not active).

With COc1ccc(O)c(/C=N/c2sc(C)c(C)c2C#N)c1 the IC50 [4] was > 50 µM (not active).

For CCNC(=O)NC(=O)C(C)Sc1ccc2c(c1)OCCO2 (stereo not given), the IC50 [8] was 7.93 µM (active).

With C=CCN1CC[C@]23c4c5ccc(O)c4O[C@H]2/C(=N/NC(=O)c2ccccc2)CC[C@@]3(O)[C@H]1C5 [NALOXONE BENZOYLHYDRAZONE] the AC50 [1] was 15.8 µM (inconclusive).

With CC(C)NC(=O)c1cc(C(=O)c2cc(Cl)ccc2O)coc1=N the IC50 [8] was 2.15 µM (active).

With COc1ccc(-c2coc3cc(OC)cc(OC)c3c2=O)cc1 [BIOCHANIN A, DIMETHYL ETHER] the AC50 [1] was 20 µM (inconclusive).

In the case of CCCCC#CC1C=CC(Oc2cc(OC)c(OC)c(OC)c2)C(CO)O1 (stereo not given), the AC50 [1] was 5.01 µM (inconclusive).

With O=C(N/N=C/c1cc([N+](=O)[O-])ccc1O)c1cccc2ccccc12 the EC50 [6] was > 350 µM (not active), the AC50 [15] was 4.2 µM (active) and the EC50 [16] was 2.36 µM (active). The EC50 [17] was > 60 µM (not active) and the EC50 [7] was 20.3 µM (active).

In the case of Cc1cc(O)nc(N=N/C(=N/Nc2ccc(O)cc2)c2ccccc2)n1, the EC50 [6] was 8.27 µM (active), the EC50 [18] was 4.42 µM (active) and the EC50 [19] was 16.4 µM (active). For the same compound, the EC50 [20] was 11.6 µM (active), the EC50 [21] was 0.763 µM (active) and the EC50 [22] was 13.1 µM (active). The EC50 [7] was 102 µM (active).
